For orientation: IC50 means the concentration at which inhibition is half-maximal.

In assay [1] the test system is H187 Human Small Cell Carcinoma. The assay is described as follows: Human tumor xenograft model in mice, H187. Format: in vivo. As to conditions: QD × 7. The source says:
(§1) All rodents were obtained from Jackson Laboratory. (Bar Harbor, Me.), and maintained in an ammonia-free environment in a defined and pathogen-free colony. All mice were quarantined approximately 1 week prior to their use for tumor propagation and drug efficacy testing. Mice were fed food and water ad libitum. The animal care program of Bristol-Myers Squibb Pharmaceutical Research Institute is fully accredited by the American Association for Accreditation of Laboratory Animal Care (AAALAC). All experiments were performed in accordance with Bristol-Myers Squibb (BMS) animal test methods and guidelines.
(§2) Tumor xenografts were grown and maintained subcutaneously (SC) in NSG (NOD scid IL2 receptor gamma chain knockout) mice (Jackson Lab). Tumors were propagated as subcutaneous transplants using tumor fragments obtained from donor mice.
(§3) The required numbers of animals needed to detect a meaningful response were pooled at the start of the experiment and each was given bilateral subcutaneous implants of two tumor fragments (˜20 mg) with a 13-gauge trocar. Tumors were allowed to grow to the pre-determined size window (tumors outside the range were excluded) and animals were evenly distributed to various treatment and control groups. There were typically 6-8 mice per treatment and control groups, consisting of 10-12 tumors. Treatment of each animal was based on individual body weight. Treated animals were checked daily for treatment related toxicity/mortality. Each group of animals was weighed before the initiation of treatment (Wt1) and then again following the last treatment dose (Wt2). The difference in body weight (Wt2−Wt1) provides a measure of treatment-related toxicity.
(§4) Tumor response was determined by measurement of tumors with a caliper twice a week, until the tumors reached a predetermined “target” size of 0.5 gm or 1 gm depending on the tumor type. Tumor weights (mg) were estimated from the formula: Tumor weight=(length×width^2)÷2
(§5) Tumor response criteria are expressed in terms of tumor growth inhibition (% TGI). Tumor growth delay is defined as the difference in time (days) required for the treated tumors (T) to reach a predetermined target size compared to those of the control group (C). For this purpose, the tumor weight of a group is expressed as medium tumor weight (MTW).
(§6) [formula] where, • Ct=Median control tumor size at end of treatment • C0=Median control tumor size at treatment initiation • Tt=Median tumor size of treated group at end of treatment • T0=Median tumor size of treated group at treatment initiation
(§7) Tumor response was also expressed in terms of tumor growth delay and expressed as log cell kill (LCK value), defined as the difference in time (days) required for the treated tumors (T) to reach a predetermined target size compared to those of the control group (C).
(§8) Whenever possible, antitumor activity was determined at a range of dose levels up to the maximum tolerated dose (MTD) which is defined as the dose level immediately […] which excessive toxicity (i.e. more than one death) occurred. When death occurred, the day of death was recorded. Treated mice dying prior to having their tumors reach target size were considered to have died from drug toxicity. No control mice died bearing tumors less than target size. Treatment groups with more than one death caused by drug toxicity were considered to have had excessively toxic treatments and their data were not included in the evaluation of a compound's antitumor efficacy.
(§9) For administration of BET inhibitors to rodents, compounds were dissolved in […]/10% TPGS/10% Ethanol. BET inhibitors were typically administered orally on a schedule of QD×7 or QD×10 (5 day-on-2 day-off), although other schedules had also been evaluated and shown to be efficacious

Assay [2] addresses BRD4 (Homo sapiens, UniProt O60885). The assay is described as follows: Time Resolved Fluorescence Resonance Energy Transfer (TR-FRET) binding assay, BRD4. The settings on record: one of the FRET assays described; read-out: FRET BRD4 IC50. On the technique in general: Time-resolved FRET reads energy transfer from a long-lived donor to a nearby acceptor.
The subject of assay [3] is JJN3R multiple myeloma cell line. Kind of assay: Human tumor xenograft model in mice, JJN3R. Format: in vivo. As to conditions: QD × 7.
From the text: as §1, §2, §3, §4, §5, §6, §7, §8, §9
For orientation: A xenograft is tissue or cells of one species grown in another, often human tumour cells in immunodeficient mice.

In the case of `Cc1nnn(C)c1-c1cnc2c3ccc(C(C)(C)O)c(F)c3n(C(c3ccccc3)C3CCOCC3)c2c1` (single isomer, unassigned) [Example 70, 2-[3-(dimethyl-1H-1,2,3-triazol-5-yl)-6-fluoro-5-[oxan-4-yl(phenyl)methyl]-5H-pyrido[3,2-b]indol-7-yl]propan-2-ol], the “% TGI” value is 82.0% in assay [1] (H187, 1 mg/kg); 90.0% in assay [1] (H187, 3 mg/kg); 96.0% in assay [1] (H187, 10 mg/kg). For the same compound, the LCK in assay [1] (H187, 1 mg/kg) is listed as 0.7; in assay [1] (H187, 3 mg/kg) it was 1.0; in assay [1] (H187, 10 mg/kg), 1.6. Also, the IC50 in assay [2] was below 5 nM.

For `Cc1nnn(C)c1-c1cnc2c3ccc(C(C)(O)C4CC4)c(F)c3n([C@H](c3ccccc3F)C3CCOCC3)c2c1` (single isomer, unassigned) [Example 436], the LCK is reported as 0.6 in assay [3] (1 mg/kg) and 0.9 in assay [3] (4 mg/kg). In assay [2], the IC50 is below 5 nM.

For `[2H]C([2H])([2H])c1nnn(C)c1-c1cnc2c3ccc(C(C)(C)O)cc3n(C(c3ccccc3)C3CCC(F)(F)CC3)c2c1` (centres unmarked) [Example 203, 2-{5-[(4,4-Difluorocyclohexyl)(phenyl)methyl]-3-[4-(^2H3)methyl-1-methyl-1H-1,2,3-triazol-5-yl]-5H-pyrido[3,2-b]indol-7-yl}propan-2-ol], in assay [3] (1 mg/kg), the “% TGI” value was 93% and the LCK came out at 0.7. Further, in assay [3] (4 mg/kg), the “% TGI” value worked out at 105% and the LCK is on record as above 1.4. The IC50 in assay [2] was below 5 nM.

For the compound `[2H]C([2H])([2H])c1nnn(C)c1-c1cnc2c3ccc(S(C)(=O)=O)cc3n([C@H](c3ccccc3)C3CCOCC3)c2c1` [Example 263, 5-{7-Methanesulfonyl-5-[(S)-oxan-4-yl(phenyl)methyl]-5H-pyrido[3,2-b]indol-3-yl}-4-(^2H3)methyl-1-methyl-1H-1,2,3-triazole], the figures for the LCK in assay [3] (1 mg/kg) and in assay [3] (4 mg/kg) were 0.2 and 0.3, respectively. Further, the IC50 in assay [2] was below 5 nM.

In the case of `[2H]C([2H])([2H])c1nnn(C)c1-c1cnc2c3cc(F)c(C(C)(C)O)cc3n([C@H](c3ccccc3F)C3CCOCC3)c2c1` [Example 276, 2-{8-Fluoro-5-[(S)-(2-fluorophenyl)(oxan-4-yl)methyl]-3-[4-(^2H3)methyl-1-methyl-1H-1,2,3-triazol-5-yl]-5H-pyrido[3,2-b]indol-7-yl}propan-2-ol], the LCK in assay [3] (1 mg/kg) amounted to 0.3; in assay [3] (4 mg/kg) it was 1. Also, the IC50 in assay [2] is below 5 nM.

On to `[2H]C([2H])([2H])c1nnn(C)c1-c1cnc2c3ccc(C(C)(C)O)c(F)c3n([C@H](c3ccccc3)C3CCOCC3)c2c1` [Example 278, 2-{6-Fluoro-3-[4-(^2H3)methyl-1-methyl-1H-1,2,3-triazol-5-yl]-5-[(S)-oxan-4-yl(phenyl)methyl]-5H-pyrido[3,2-b]indol-7-yl}propan-2-ol], for which the LCK in assay [3] (1 mg/kg) is 1; in assay [3] (4 mg/kg) it was above 1.4. The IC50 in assay [2] was below 5 nM.

In the case of `[2H]C([2H])([2H])c1nnn(C)c1-c1cnc2c3cc(F)c(C(C)(C)O)cc3n([C@H](c3ccccc3)C3CCOCC3)c2c1` [Example 279, 2-{8-Fluoro-3-[4-(^2H3)methyl-1-methyl-1H-1,2,3-triazol-5-yl]-5-[(S)-oxan-4-yl(phenyl)methyl]-5H-pyrido[3,2-b]indol-7-yl}propan-2-ol], the LCK is listed as 0.6 in assay [3] (1 mg/kg) and above 1.4 in assay [3] (4 mg/kg). In assay [2], the IC50 is below 5 nM.

Regarding `Cc1nnn(C)c1-c1cnc2c3ccc([C@](C)(O)C4CC4)c(F)c3n([C@H](c3ccccc3)C3CCOCC3)c2c1` [Example 432, (1R)-1-cyclopropyl-1-[3-(dimethyl-1H-1,2,3-triazol-5-yl)-6-fluoro-5-[(S)-oxan-4-yl(phenyl)methyl]-5H-pyrido[3,2-b]indol-7-yl]ethan-1-ol], the LCK in assay [3] (1 mg/kg) is given as 0.4; in assay [3] (4 mg/kg), 1.4. In addition, the IC50 in assay [2] is below 5 nM.

On to `[2H]C([2H])([2H])c1nnn(C)c1-c1cnc2c3ccc([C@@](C)(O)C4CC4)c(F)c3n([C@H](c3ccccc3)C3CCOCC3)c2c1` [Example 433, (1S)-1-cyclopropyl-1-{6-fluoro-3-[4-(^2H3)methyl-1-methyl-1H-1,2,3-triazol-5-yl]-5-[(S)-oxan-4-yl(phenyl)methyl]-5H-pyrido[3,2-b]indol-7-yl}ethan-1-ol], for which, in assay [3] (1 mg/kg), the “% TGI” value is 54% and the LCK amounted to 0.5.

Take `[2H]C([2H])([2H])c1nnn(C)c1-c1cnc2c3ccc([C@](C)(O)C4CC4)c(F)c3n([C@H](c3ccccc3)C3CCOCC3)c2c1` [Example 434, (1R)-1-cyclopropyl-1-{6-fluoro-3-[4-(^2H3)methyl-1-methyl-1H-1,2,3-triazol-5-yl]-5-[(S)-oxan-4-yl(phenyl)methyl]-5H-pyrido[3,2-b]indol-7-yl}ethan-1-ol]: in assay [3] (1 mg/kg), the “% TGI” value turned out to be 82% and the LCK stood at 0.5.

Turning to `Cc1ncn(C)c1-c1cnc2c3ccc(S(C)(=O)=O)cc3n([C@H](c3ccccc3)C3CCOCC3)c2c1` [Example 454, 5-{7-Methanesulfonyl-5-[(S)-oxan-4-yl(phenyl)methyl]-5H-pyrido[3,2-b]indol-3-yl}-1,4-dimethyl-1H-imidazole], the IC50 in assay [2] was below 25 nM.

On to `Cc1n[nH]cc1-c1cnc2c3ccc(S(C)(=O)=O)cc3n([C@H](c3ccccc3)C3CCOCC3)c2c1` [Example 455, 4-{7-Methanesulfonyl-5-[(S)-oxan-4-yl(phenyl)methyl]-5H-pyrido[3,2-b]indol-3-yl}-3-methyl-1H-pyrazole], for which the IC50 in assay [2] is below 25 nM.

Regarding `Cc1nnn(C)c1-c1cnc2c3ccc(C(N)=O)c(F)c3n([C@H](c3ccccc3)C3CCOCC3)c2c1` [Example 460, 3-(Dimethyl-1H-1,2,3-triazol-5-yl)-6-fluoro-5-[(S)-oxan-4-yl(phenyl)methyl]-5H-pyrido[3,2-b]indole-7-carboxamide], the IC50 in assay [2] is below 5 nM.

Take `Cc1nnn(C)c1-c1cnc2c3ccc(C(C)(C)N)c(F)c3n([C@H](c3ccccc3)C3CCOCC3)c2c1` [Example 461, 2-[3-(Dimethyl-1H-1,2,3-triazol-5-yl)-6-fluoro-5-[(S)-oxan-4-yl(phenyl)methyl]-5H-pyrido[3,2-b]indol-7-yl]propan-2-amine]: the IC50 in assay [2] is below 5 nM.

Consider `CC(=O)NC(C)(C)c1ccc2c3ncc(-c4c(C)nnn4C)cc3n([C@H](c3ccccc3)C3CCOCC3)c2c1F` [Example 462, N-{2-[3-(Dimethyl-1H-1,2,3-triazol-5-yl)-6-fluoro-5-[(S)-oxan-4-yl(phenyl)methyl]-5H-pyrido[3,2-b]indol-7-yl]propan-2-yl}acetamide], for which, in assay [2], the IC50 is below 5 nM.

For the compound `Cc1nnn(C)c1-c1cnc2c3ccc(C(C)(C)NS(C)(=O)=O)c(F)c3n([C@H](c3ccccc3)C3CCOCC3)c2c1` [Example 463, N-{2-[3-(Dimethyl-1H-1,2,3-triazol-5-yl)-6-fluoro-5-[(S)-oxan-4-yl(phenyl)methyl]-5H-pyrido[3,2-b]indol-7-yl]propan-2-yl}methanesulfonamide], in assay [2], the IC50 was below 5 nM.

For the compound `COC(=O)NC(C)(C)c1ccc2c3ncc(-c4c(C)nnn4C)cc3n([C@H](c3ccccc3)C3CCOCC3)c2c1F` [Example 464, Methyl N-{2-[3-(dimethyl-1H-1,2,3-triazol-5-yl)-6-fluoro-5-[(S)-oxan-4-yl(phenyl)methyl]-5H-pyrido[3,2-b]indol-7-yl]propan-2-yl}carbamate], in assay [2], the IC50 was below 5 nM.

These data come from US10112941B2, “Tricyclic compounds as anticancer agents” (BRISTOL-MYERS SQUIBB COMPANY, priority 2013, dated 2018).
